One test deals with HeLa cells. Put plainly: IC50 in HeLa cells. Type of test: cell-based. Particulars: Homo sapiens.
The test system of the next test is nonsense mutation W1268X. Put plainly: pAC99 dual reporter readthrough in HeLa cells, W1268X. The format is cell-based, human. The conditions noted are these: 24 hours. Here is the method:
(§1) Different compounds of the invention have been tested for their ability to induce readthrough on the nonsense mutation W1268X or R213X in HeLa cells.
(§2) To this aim the inventors used the pAC99 dual reporter plasmid. This dual reporter is used to quantify stop-codon readthrough through the measurement of luciferase and beta-galactosidase (internal normalisation) activities. Readthrough levels for nonsense mutations were analysed in the presence or absence of tested molecules. Cells are seeded in a 6-well plate. The next day, cells are transfected with the reporter plasmid using the JetPei reagent (Invitrogen). The following day, they are rinsed with fresh medium, with or without readthrough inducers. Cells were harvested 24 hours later, with trypsin—EDTA (Invitrogen), lysed with Glo lysis buffer (Promega) and beta-galactosidase and luciferase activities were assayed as previously described. Readthrough efficiency was estimated by calculating the ratio of luciferase activity to beta-galactosidase activity obtained with the test construct, with normalisation against an in-frame control construct. At least five independent transfection experiments were performed for each assay.

For a further test, the system named is nonsense mutation R213X. Put plainly: pAC99 dual reporter readthrough in HeLa cells, R213X. Type of test: cell-based, human. Particulars: 24 hours. Here is the method: as §1, §2
Test [1] deals with p53 (endogenous nonsense mutation R213X) in HDQ-P1 cells. The test is described as follows: Western blot of full-length p53 in HDQ-P1 cells. Type of test: cell-based, human. The conditions noted are these: HDQ-P1, 48 h; for production of the full-length p53 (western blot): TLN68 50 μM, TLN236 30 μM, TLN309 40 μM. Here is the method: HDQ-P1 cells (R213X) were treated with G418 ([…]), or the selected molecules (TLN68 50 μM, TLN1399 50 μM, TLN236 30 μM and TLN309 40 μM), for 48 h. Cells were harvested by treatment with trypsin—EDTA (Invitrogen), lysed in 350 mM NaCl, 50 mM Tris—HCl pH 7.5, 1% NP-40, and protease inhibitor cocktail (Roche) and disrupted by passage through a syringe.
Total proteins were quantified with Bradford reagent (Biorad) and extracts were denatured by incubation in Laemmli buffer for 5 minutes at 90° C. The inventors subjected 30 μg of total protein from HDQ-1 cells to SDS—PAGE in 4/10% Bis—Tris gels. Proteins were transferred onto nitrocellulose membranes, according to the manufacturer's instructions (Biorad). Membranes were saturated by overnight incubation in 5% skimmed milk powder in PBS, and incubated for 1 hour with the primary monoclonal antibody, DO-1 (N-terminal epitope mapping between amino acid residues 11 and 25 of p53; Santa Cruz Biotechnologies, 1/400) or a monoclonal antibody against mouse actin (Millipore, 1/2000). After three washes in PBS supplemented with 0.1% Tween, the membranes were incubated with the secondary antibody [horseradish peroxidase-conjugated anti-mouse IgG ( 1/2500)] for 45 minutes. The membranes were washed five times and chemiluminescence was detected with ECL Prime Western Blotting Detection Reagents (Amersham, GE Healthcare). The signal was quantified with ImageJ software.
A general note: A western blot detects proteins with antibodies after separation by electrophoresis.

In a further test the test system is TP53-R213X mRNA. Put plainly: RT-qPCR of mutant p53 mRNA in HDQ-P1 cells. The format is cell-based, human. The conditions noted are these: HDQ-P1, 48 hours; TLN68 80 μM, TLN309 40 μM; n=3. As for the experimental part: For the analysis of mRNA levels for p53 and its transcriptional target genes, Bax, the inventors extracted total RNA from HDQ-P1 cells that had or had not been treated with G418 (400 μM) or TLN68 (80 μM) for 48 hours (RNeasy Mini Kit, Qiagen). The RNA was treated with DNAse I (RNase-free DNase) and quantified with a Nanodrop spectrometer (ThermoScientific). The absence of RNA degradation was confirmed by agarose gel electrophoresis. The first-strand cDNA was synthesized from 2 μg of total RNA, with random primers and the SuperScript II Reverse Transcriptase (Invitrogen), as recommended by the manufacturer. Quantitative PCR was then carried out on equal amounts of the various cDNAs, with a CFX96 thermocycler (Biorad), and the accumulation of products was monitored with the intercalating dye FastStart Universal SYBRGreen Master (ROX) reagent (Roche). The inventors quantified mRNA levels relative to three reference mRNAs: RPL32, Hprt1 and HMBS. In each experiment, results are expressed relative to those for untreated cells, for which the value obtained was set to 1. Relative levels of gene expression were calculated at early stages of PCR, when the amplification was exponential and might, therefore, be correlated with the initial number of copies of the transcript. […] For the quantification of each mRNA, three independent experiments (from biological replicates) were performed in triplicate. […]
(Real-time PCR tracks product formation cycle by cycle.)

Test [2] relates to TP53 R213X nonsense mutation. The test is described as follows: Dual reporter (lacZ/F-luc, pAC99) stop codon readthrough quantification, R213X, NIH3T3 cells. Type of test: cell-based, mouse. The conditions noted are these: 24 h, each drug separately or together. An excerpt:
Complementary oligonucleotides corresponding to TP53 R213X nonsense mutations and 9 nucleotides on both sides are ligated into the pAC99 dual reporter plasmid, as previously described (Premature stop codons involved in muscular dystrophies show a broad spectrum of readthrough efficiencies in response to gentamicin treatment, Bidou et al, Gene Therapy 1 Apr. 2004, 11(7):619-627). This dual reporter is used to quantify stop-codon readthrough through the measurement of luciferase and beta-galactosidase (internal calibration) activities, as previously described (Stahl et al, Versatile vectors to study recoding: conservation of rules between yeast and mammalian cells. Nucleic Acids Res 1995; 23:1557-60). Readthrough levels for nonsense mutations were analysed in the presence or absence of tested molecules. Cells were seeded in a 6-well plate. The next day, cells are transfected with the reporter plasmid in the presence of JetPei reagent (Invitrogen). The following day, they are rinsed with fresh medium, with or without readthrough inducers. […] Readthrough efficiency was estimated by calculating the ratio of luciferase activity to beta-galactosidase activity obtained with the test construct, with normalisation against an in-frame control construct. […]

The test system of test [3] is TP53 nonsense mutation R213X. Put plainly: Secreted Metridia luciferase R213X reporter in stable NIH3T3 cell line (HTS). The format is cell-based, mouse. Particulars: gentamicin 1.6 mM 24 hours, 7 clones, library molecules 50 μM. As for the experimental part:
All cells were cultured in DMEM plus GlutaMAX (Invitrogen), except for H1299 cells, which were cultured in RPMI plus GlutaMAX (Invitrogen). The medium was supplemented with 10% foetal calf serum (FCS, Invitrogen) and 100 U/ml penicillin/streptomycin. Cells were kept in a humidified atmosphere containing 5.5% CO2, at 37° C. NIH3T3 cells are embryonic mouse fibroblasts. H1299 is a p53-null cell line established from a human lung carcinoma (provided by the ATCC). HDQ-P1 is homozygous for a nonsense mutation at codon 213 (CGA to TGA) in the p53 gene. This cell line was established from a human primary breast carcinoma and was provided by DSMZ-German collection of microorganisms and cell cultures. In order to generate a stable mammalian cell line the inventors used a secreted Metridia luciferase reporter gene derived from pMetLuc2 (Clonetech). […] Seven neomycin resistant clones were tested for their capacity to express active metridiae after readthrough induction in the presence of 1.6 mM gentamicin during 24 hours. Then 50 μL of culture medium was taken from each well and incubated in the presence of substrate: coelenterazine, according to the conditions recommended by the supplier (Ready-To-Glow Secreted Luciferase Reporter Assay (Clonetech)). The photon emission generated by the reaction was measured in a plate luminometer (Tecan). […]

The subject of another test is dystrophin. The conditions noted are these: skeletal muscle of mdx mice, subcutaneous injections (Barton-Davis et al, 1999); cited from earlier work.

For orientation: IC50 means the concentration that gives 50% inhibition. Read a low IC50 as greater potency.

In the test with HeLa cells, `Cc1nc(NC(=N)N)nc2cc(F)ccc12` [EC-11] had a half-inhibitory concentration (IC50) of 40 µM. The “Inducting factor of readthrough as compared to untreated cells (measured on nonsense mutation W1268X)” value with nonsense mutation W1268X is listed as 11.

The molecule `COc1ccc2c(C)nc(NC(=N)N)nc2c1` [EC-18, 1-(7-methoxy-4-methylquinazolin-2-yl)guanidine] registered an IC50 with HeLa cells of 60 µM. In the test with nonsense mutation W1268X, the “Inducting factor of readthrough as compared to untreated cells (measured on nonsense mutation W1268X)” value worked out at 69. For the same molecule, the “Inducting factor of readthrough as compared to untreated cells (measured on nonsense mutation R213X)” value in the test with nonsense mutation R213X came to 50.

`COc1cccc2c(C)nc(NC(=N)N)nc12` [EC-30] yielded a 50% inhibitory concentration (IC50) with HeLa cells of 80 µM. Further, in the test on nonsense mutation W1268X, the “Inducting factor of readthrough as compared to untreated cells (measured on nonsense mutation W1268X)” value turned out to be 10.

Molecule `Cc1nc(NC(=N)N)nc2c(C)cccc12` [EC-35, 1-(4,8-dimethylquinazolin-2-yl)guanidine] displayed an IC50 with HeLa cells of 20 µM. For the same molecule, the “Inducting factor of readthrough as compared to untreated cells (measured on nonsense mutation W1268X)” value in the test with nonsense mutation W1268X is given as 11. For the same molecule, in the test with nonsense mutation R213X, the “Inducting factor of readthrough as compared to untreated cells (measured on nonsense mutation R213X)” value stood at 14.

On to `Cc1nc(NC(=N)N)nc2cc(Br)ccc12` [EC-85], for which the IC50 with HeLa cells was determined as 20 µM. Moreover, the “Inducting factor of readthrough as compared to untreated cells (measured on nonsense mutation W1268X)” value in the test with nonsense mutation W1268X is on record as 15. The “Inducting factor of readthrough as compared to untreated cells (measured on nonsense mutation R213X)” value in the test with nonsense mutation R213X is given as 16.

In the test on HeLa cells, `Cc1nc(NC(=N)N)nc2c(C)c(Br)ccc12` [EC-130, 1-(7-bromo-4,8-dimethylquinazolin-2-yl)guanidine] yielded a 50% inhibitory concentration (IC50) of 10 µM. In addition, in the test with nonsense mutation W1268X, the “Inducting factor of readthrough as compared to untreated cells (measured on nonsense mutation W1268X)” value was 21. For the same molecule, the “Inducting factor of readthrough as compared to untreated cells (measured on nonsense mutation R213X)” value in the test with nonsense mutation R213X came out at 33.

In the test on HeLa cells, `Cc1nc(NC(=N)N)nc2cc(Cl)ccc12` [EC-141] returned a half-inhibitory concentration (IC50) of 40 µM. Further, in the test with nonsense mutation W1268X, the “Inducting factor of readthrough as compared to untreated cells (measured on nonsense mutation W1268X)” value was 16.

In the test with HeLa cells, `CCc1nc(NC(=N)N)nc2cc(OC)ccc12` [EC-265] had an IC50 of 60 µM. In addition, the “Inducting factor of readthrough as compared to untreated cells (measured on nonsense mutation W1268X)” value with nonsense mutation W1268X was determined as 19. In addition, the “Inducting factor of readthrough as compared to untreated cells (measured on nonsense mutation R213X)” value with nonsense mutation R213X is given as 40.

In the test with HeLa cells, `Cc1nc(NC(=N)N)nc2c(C)c(F)ccc12` [EC-288, 1-(7-fluoro-4,8-dimethylquinazolin-2-yl)guanidine] registered an IC50 of 20 µM. Also, in the test on nonsense mutation W1268X, the “Inducting factor of readthrough as compared to untreated cells (measured on nonsense mutation W1268X)” value is 68. Moreover, the “Inducting factor of readthrough as compared to untreated cells (measured on nonsense mutation R213X)” value in the test on nonsense mutation R213X is given as 55.

Take `Cc1nc(NC(=N)N)nc2c(C)c(Cl)ccc12` [EC-335, 1-(7-chloro-4,8-dimethylquinazolin-2-yl)guanidine]: the half-maximal inhibitory concentration (IC50) with HeLa cells is 10 µM. In the test on nonsense mutation W1268X, the “Inducting factor of readthrough as compared to untreated cells (measured on nonsense mutation W1268X)” value was 33. For the same molecule, the “Inducting factor of readthrough as compared to untreated cells (measured on nonsense mutation R213X)” value in the test on nonsense mutation R213X was 38.

`COc1cc(C(=O)OCCCN2CCCN(CCCOC(=O)c3cc(OC)c(OC)c(OC)c3)CC2)cc(OC)c1OC.Cl.Cl` [TLN236]: the “production of the full-length p53 (western blot)” value in test [1] was “no protein is revealed”.

On to `CCN(CC)Cc1cc(Nc2ccnc3cc(Cl)ccc23)ccc1O` [TLN309, Amodiaquine], for which the “level of induction of full-length p53 compared with G418” value in test [1] (G418 10 and 20 mM) is “even higher to the one obtained in presence of G418”. Moreover, the “production of the full-length p53 (western blot)” value in test [1] is “stimulate the production of the full-length p53”. In addition, in the test with TP53-R213X mRNA, the “stabilisation of TP53-R213X mRNA relative to untreated” value is listed as “marginal stabilisation”.

The molecule gentamicin returned a readthrough level in test [2] of 10%. The “induction of Metridia luciferase activity” value in test [3] was “significant induction”. In addition, in the test with dystrophin, the “restoration of dystrophin levels relative to wild-type animals” value is reported as 10-20%.
